Data reported in US9452980B2, “Substituted benzamides” (Hoffmann-La Roche Inc., priority 2009, dated 2016).
Counter-ions that a name gives are not always drawn. Like-named read-outs stand apart in the source and are kept apart here.

Key:
rat TAAR1 = rat TAAR1 (Rattus norvegicus (Rat), UniProt Q923Y9); assay: Radioligand binding assay on rat TAAR1; settings: rat TAAR1, HEK-293 membranes, second value of cell mouse/rat; read-out: Ki (μM) rat
Method in brief: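 Membranes from HEK293 cells stably expressing rat TAAR1, with Kd checked per batch by saturation. Competition with ³H-(S)-4-[(ethyl-phenyl-amino)-methyl]-4,5-dihydro-oxazol-2-ylamine, compounds 10 pM–10 μM in duplicate, 1 hr at 4 °C. Filtration then scintillation counting; nonspecific binding defined with 10 μM unlabeled ligand.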

mouse TAAR1 = mouse TAAR1 (Mus musculus (Mouse), UniProt Q923Y8); assay: Radioligand binding assay on mouse TAAR1; settings: read-out: Ki (μM) mouse
Sequence of mouse TAAR1 (Q923Y8 whole entry): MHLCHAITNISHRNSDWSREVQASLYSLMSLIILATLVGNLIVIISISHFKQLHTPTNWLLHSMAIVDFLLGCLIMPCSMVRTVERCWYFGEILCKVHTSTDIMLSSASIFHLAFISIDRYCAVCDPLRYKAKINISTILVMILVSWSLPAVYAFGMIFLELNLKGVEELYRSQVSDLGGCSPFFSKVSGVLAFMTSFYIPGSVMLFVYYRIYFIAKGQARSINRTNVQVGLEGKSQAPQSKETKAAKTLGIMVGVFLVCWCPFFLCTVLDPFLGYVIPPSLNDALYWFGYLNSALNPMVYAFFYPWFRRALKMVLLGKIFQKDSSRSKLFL
Method in brief: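 Displacement of the tritiated oxazol-2-ylamine radioligand was measured by filtration and scintillation counting after 1 h incubation at 4 °C. Test concentrations ran 10 pM–10 μM in duplicate, with 10 μM cold ligand giving nonspecific binding. The receptor source was membranes of a stable mouse TAAR1 HEK293 line.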

[1] = mouse TAAR1, HEK-293 membranes, first value of cell mouse/rat

Sequence of rat TAAR1 (Q923Y9 whole entry): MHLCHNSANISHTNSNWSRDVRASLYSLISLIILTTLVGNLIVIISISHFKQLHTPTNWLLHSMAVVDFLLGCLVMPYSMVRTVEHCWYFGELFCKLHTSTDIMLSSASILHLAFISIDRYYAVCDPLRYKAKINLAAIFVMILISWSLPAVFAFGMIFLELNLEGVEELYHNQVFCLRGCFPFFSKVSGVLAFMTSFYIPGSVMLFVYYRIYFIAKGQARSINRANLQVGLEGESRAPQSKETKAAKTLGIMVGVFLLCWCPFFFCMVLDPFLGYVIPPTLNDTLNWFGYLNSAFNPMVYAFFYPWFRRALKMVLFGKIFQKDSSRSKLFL

Ki (rat TAAR1) [µM]	Ki (mouse TAAR1; [1]) [µM]	Compound	Ki (mouse TAAR1) [µM]
1.77	0.713	O=C(Nc1ccc(C2CCNC2)cc1)c1ncccc1F (racemic) [Example 82, (RS)-3-Fluoro-pyridine-2-carboxylic acid (4-pyrrolidin-3-yl-phenyl)-amide hydrochloride]	–
0.012	0.002	O=C(Nc1ccc(C2CCCNC2)cc1)Nc1ccc(Cl)cn1 (racemic) [Example 83, (RS)-1-(5-Chloro-pyridin-2-yl)-3-(4-piperidin-3-yl-phenyl)-urea hydrochloride]	–
0.0381	0.008	O=C(Nc1ccc(C2CCNC2)cc1)c1ccc2ccccc2n1 (racemic) [Example 84, (RS)-Quinoline-2-carboxylic acid (4-pyrrolidin-3-yl-phenyl)-amide hydrochloride]	–
0.116	0.0051	O=C(Nc1ccc(C2CCNC2)cc1)c1cc(Cl)ccn1 (racemic) [Example 86, (RS)-4-Chloro-pyridine-2-carboxylic acid (4-pyrrolidin-3-yl-phenyl)-amide hydrochloride]	–
0.017	0.0051	O=C(Nc1ccc(C2CCNC2)cc1)c1ccc(Br)cn1 (racemic) [Example 87, (RS)-5-Bromo-pyridine-2-carboxylic acid (4-pyrrolidin-3-yl-phenyl)-amide hydrochloride]	–
0.102	0.0052	COc1ccc(C(=O)Nc2ccc(C3CCNC3)cc2)c(F)c1 (racemic) [Example 88, (RS)-2-Fluoro-4-methoxy-N-(4-pyrrolidin-3-yl-phenyl)-benzamide hydrochloride]	–
0.006	0.0059	O=C(Nc1ccc(C2CCNC2)cc1)c1ccc(OCC(F)(F)F)nc1 (racemic) [Example 89, (RS)—N-(4-Pyrrolidin-3-yl-phenyl)-6-(2,2,2-trifluoro-ethoxy)-nicotinamide hydrochloride]	–
0.0101	0.0192	COc1cc(C(=O)Nc2ccc(C3CCNC3)cc2)nc2ccccc12 (racemic) [Example 90, (RS)-4-Methoxy-quinoline-2-carboxylic acid (4-pyrrolidin-3-yl-phenyl)-amide hydrochloride]	–
0.0223	0.0039	COc1ccc2nc(C(=O)Nc3ccc(C4CCNC4)cc3)ccc2c1 (racemic) [Example 91, (RS)-6-Methoxy-quinoline-2-carboxylic acid (4-pyrrolidin-3-yl-phenyl)-amide hydrochloride]	–
0.322	0.0385	COc1ccc(C(=O)Nc2ccc(C3CCNC3)cc2)c(OC)n1 (racemic) [Example 95, (RS)-2,6-Dimethoxy-N-(4-pyrrolidin-3-yl-phenyl)-nicotinamide]	–
0.0193	0.0038	CCOc1ccc(C(=O)Nc2ccc(C3CCCNC3)cc2)cc1 (racemic) [Example 97, (RS)-4-Ethoxy-N-(4-piperidin-3-yl-phenyl)-benzamide hydrochloride]	–
0.0114	0.0041	O=C(Nc1ccc(C2CCCNC2)cc1)c1ccc(C(F)(F)F)cc1 (racemic) [Example 98, (RS)—N-(4-Piperidin-3-yl-phenyl)-4-trifluoromethyl-benzamide hydrochloride]	–
0.0263	0.002	O=C(CCc1ccc(Cl)cc1)Nc1ccc(C2CCCNC2)cc1 (racemic) [Example 101, (RS)-3-(4-Chloro-phenyl)-N-(4-piperidin-3-yl-phenyl)-propionamide hydrochloride]	–
0.0894	0.0108	O=C(Cc1ccc(Cl)cc1)Nc1ccc(C2CCCNC2)cc1 (racemic) [Example 102, (RS)-2-(4-Chloro-phenyl)-N-(4-piperidin-3-yl-phenyl)-acetamide hydrochloride]	–
0.0646	0.705	CC(C(=O)Nc1ccc(C2CCCNC2)cc1)c1ccc(Cl)cc1 (racemic) [Example 103, (RS)-2-(4-Chloro-phenyl)-N—((RS)-4-piperidin-3-yl-phenyl)-propionamide]	–
0.0135	0.0296	CC(C(=O)Nc1ccc(C2CCCNC2)cc1)c1cccc(OC(F)(F)F)c1 (racemic) [Example 105, (RS)—N—((RS)-4-Piperidin-3-yl-phenyl)-2-(3-trifluoromethoxy-phenyl)-propionamide]	–
1.43	0.0248	O=C(Nc1ccc(C2CCCNC2)cc1)c1ncc(F)cc1F (racemic) [Example 106, (RS)-3,5-Difluoro-pyridine-2-carboxylic acid (4-piperidin-3-yl-phenyl)-amide hydrochloride]	–
0.0081	0.0046	O=C(Nc1ccc(C2CCNC2)cc1)c1cc2ccccc2c(Cl)n1 (racemic) [Example 108, (RS)-1-Chloro-isoquinoline-3-carboxylic acid (4-pyrrolidin-3-yl-phenyl)-amide hydrochloride]	–
0.0375	0.0021	O=C(Nc1ccc(CCC2CCCNC2)cc1)c1ccc(Cl)cc1 (racemic) [Example 110, (RS)-4-Chloro-N-[4-(2-piperidin-3-yl-ethyl)-phenyl]-benzamide hydrochloride]	–
0.0382	0.0349	CC(C(=O)Nc1ccc(C2CCCNC2)cc1)c1cccc(Cl)c1 (racemic) [Example 111, (RS)-2-(3-Chloro-phenyl)-N—((RS)-4-piperidin-3-yl-phenyl)-propionamide]	–
0.0074	0.0836	O=C(Nc1ccc(CCC2CCNC2)cc1)Nc1ccc(Cl)cn1 (racemic) [Example 114, (RS)-1-(5-Chloro-pyridin-2-yl)-3-[4-(2-pyrrolidin-3-yl-ethyl)-phenyl]-urea hydrochloride]	–
0.0014	0.0608	O=C(Nc1ccc(Cl)cc1)Nc1ccc(CCC2CCNC2)cc1 (racemic) [Example 116, (RS)-1-(4-Chloro-phenyl)-3-[4-(2-pyrrolidin-3-yl-ethyl)-phenyl]-urea hydrochloride]	–
0.0029	0.0531	O=C(Nc1ccc(CCC2CCNC2)cc1)c1ccc(Cl)cn1 (racemic) [Example 117, (RS)-5-Chloro-pyridine-2-carboxylic acid [4-(2-pyrrolidin-3-yl-ethyl)-phenyl]-amide hydrochloride]	–
0.0018	0.0365	O=C(Nc1ccc(Cl)cc1)Nc1ccc(CCC2CCCNC2)cc1 (racemic) [Example 119, (RS)-1-(4-Chloro-phenyl)-3-[4-(2-piperidin-3-yl-ethyl)-phenyl]-urea hydrochloride]	–
0.0013	0.0004	O=C(Nc1ccc(C2CCNC2)cc1)OCCc1ccc(Cl)cc1 (racemic) [Example 120, (RS)-(4-Pyrrolidin-3-yl-phenyl)-carbamic acid 2-(4-chloro-phenyl)-ethyl ester]	–
0.0004	0.0005	O=C(Nc1ccc(C2CCNC2)cc1)OCCc1cccc(Cl)c1 (racemic) [Example 121, (RS)-(4-Pyrrolidin-3-yl-phenyl)-carbamic acid 2-(3-chloro-phenyl)-ethyl ester]	–

Compound	Ki (rat TAAR1) [µM]	Ki (mouse TAAR1; [1]) [µM]	Ki (mouse TAAR1) [µM]
O=C(Nc1ccc(C2CCCNC2)cc1)c1cccc(Cl)c1 (racemic) [Example 92, (RS)-3-Chloro-N-(4-piperidin-3-yl-phenyl)-benzamide hydrochloride]	0.0238	0.0238	–
O=C(Nc1ccc(C2CCNC2)cc1)c1nccc2ccsc12 (racemic) [Example 93, (RS)-Thieno[2,3-c]pyridine-7-carboxylic acid (4-pyrrolidin-3-yl-phenyl)-amide hydrochloride]	0.173	0.04	–
COc1ccc(C(=O)Nc2ccc(C3CCNC3)cc2)nc1 (racemic) [Example 94, (RS)-5-Methoxy-pyridine-2-carboxylic acid (4-pyrrolidin-3-yl-phenyl)-amide hydrochloride]	0.379	–	0.0601
O=C(Nc1ccc(C2CCCNC2)cc1)c1ccc(Cl)c(Cl)c1 (racemic) [Example 96, (RS)-3,4-Dichloro-N-(4-piperidin-3-yl-phenyl)-benzamide hydrochloride]	0.0067	0.0016	–
O=C(Nc1ccc(C2CCCNC2)cc1)c1ccc(Cl)cc1Cl (racemic) [Example 99, (RS)-2,4-Dichloro-N-(4-piperidin-3-yl-phenyl)-benzamide hydrochloride]	0.0501	0.013	–
O=C(Nc1ccc(C2CCCNC2)cc1)c1ccc(Cl)cc1F (racemic) [Example 100, (RS)-4-Chloro-2-fluoro-N-(4-piperidin-3-yl-phenyl)-benzamide hydrochloride]	0.0308	0.0036	–
O=C(Nc1ccc(CC2CCCN2)cc1)c1ccc(Cl)cc1 (racemic) [Example 107, (RS)-4-Chloro-N-(4-pyrrolidin-2-ylmethyl-phenyl)-benzamide hydrochloride]	0.0445	0.0027	–
O=C(Nc1ccc(CCC2CCNC2)cc1)c1ccc(Cl)cc1 (racemic) [Example 109, (RS)-4-Chloro-N-[4-(2-pyrrolidin-3-yl-ethyl)-phenyl]-benzamide hydrochloride]	0.0176	0.0017	–
O=C(Nc1ccc(CCC2CCCNC2)cc1)Nc1ccc(Cl)cn1 (racemic) [Example 115, (RS)-1-(5-Chloro-pyridin-2-yl)-3-[4-(2-piperidin-3-yl-ethyl)-phenyl]-urea hydrochloride]	0.0118	0.32	–
O=C(Nc1ccc(CCC2CCCNC2)cc1)c1ccc(Cl)cn1 (racemic) [Example 118, (RS)-5-Chloro-pyridine-2-carboxylic acid [4-(2-piperidin-3-yl-ethyl)-phenyl]-amide hydrochloride]	0.0081	0.13	–
